Laboratory results published in article PMC4177916, “Characterization of the Sterol and Phosphatidylinositol 4-Phosphate Binding Properties of Golgi-Associated OSBP-Related Protein 9 (ORP9)” (PLoS ONE, 2014).
Changes are numbered by the printed parent chain. Values belong to the compound of their own block, whether it stands above or below them.

Columns and labels:
Type in all cases: binding
ORP9L [1] = target: T1, ORP9L (Homo sapiens, UniProt Q96SU4); experiment: inhibition of CTL extraction from liposomes (FRET); conditions: equimolar cholesterol and CTL (2.5 mol% each); pH 7.4, 30 °C
T1 construct: gene OSBPL9; full-length long variant, C-terminal V5-His tag (stated for the HH/AA mutant)
T1 sequence (Q96SU4 2-736): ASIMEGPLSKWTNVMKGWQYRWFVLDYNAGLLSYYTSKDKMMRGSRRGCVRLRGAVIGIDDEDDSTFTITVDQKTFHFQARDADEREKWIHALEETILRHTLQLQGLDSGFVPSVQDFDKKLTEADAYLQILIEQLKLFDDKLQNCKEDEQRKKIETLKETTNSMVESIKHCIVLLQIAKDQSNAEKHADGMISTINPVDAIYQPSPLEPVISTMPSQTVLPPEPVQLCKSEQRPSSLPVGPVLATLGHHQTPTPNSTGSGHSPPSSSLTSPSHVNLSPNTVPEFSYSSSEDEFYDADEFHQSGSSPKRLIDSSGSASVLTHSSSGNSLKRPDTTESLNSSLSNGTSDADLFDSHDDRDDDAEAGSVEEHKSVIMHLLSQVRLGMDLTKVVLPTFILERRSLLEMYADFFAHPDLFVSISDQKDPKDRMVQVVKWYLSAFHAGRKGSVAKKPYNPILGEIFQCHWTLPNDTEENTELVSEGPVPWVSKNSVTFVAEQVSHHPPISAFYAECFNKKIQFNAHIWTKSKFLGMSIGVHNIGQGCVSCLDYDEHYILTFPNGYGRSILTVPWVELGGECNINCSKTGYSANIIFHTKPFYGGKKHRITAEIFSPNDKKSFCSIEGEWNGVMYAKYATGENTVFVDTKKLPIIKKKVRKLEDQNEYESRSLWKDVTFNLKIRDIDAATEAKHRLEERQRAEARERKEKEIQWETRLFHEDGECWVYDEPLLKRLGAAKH

ORP9S = target: T2, ORP9S (Homo sapiens, UniProt Q96SU4); experiment: […]PI-4P extraction from liposomes, sedimentation; conditions: pH 7.4, 25 °C, 20 min; 0.1 mM liposomes with 0.5 mol% PI-4P; labelled compound
T2 construct: gene OSBPL9; short variant lacking N-terminal PH domain, His-tagged
T2 sequence (Q96SU4 100-736 limits assumed): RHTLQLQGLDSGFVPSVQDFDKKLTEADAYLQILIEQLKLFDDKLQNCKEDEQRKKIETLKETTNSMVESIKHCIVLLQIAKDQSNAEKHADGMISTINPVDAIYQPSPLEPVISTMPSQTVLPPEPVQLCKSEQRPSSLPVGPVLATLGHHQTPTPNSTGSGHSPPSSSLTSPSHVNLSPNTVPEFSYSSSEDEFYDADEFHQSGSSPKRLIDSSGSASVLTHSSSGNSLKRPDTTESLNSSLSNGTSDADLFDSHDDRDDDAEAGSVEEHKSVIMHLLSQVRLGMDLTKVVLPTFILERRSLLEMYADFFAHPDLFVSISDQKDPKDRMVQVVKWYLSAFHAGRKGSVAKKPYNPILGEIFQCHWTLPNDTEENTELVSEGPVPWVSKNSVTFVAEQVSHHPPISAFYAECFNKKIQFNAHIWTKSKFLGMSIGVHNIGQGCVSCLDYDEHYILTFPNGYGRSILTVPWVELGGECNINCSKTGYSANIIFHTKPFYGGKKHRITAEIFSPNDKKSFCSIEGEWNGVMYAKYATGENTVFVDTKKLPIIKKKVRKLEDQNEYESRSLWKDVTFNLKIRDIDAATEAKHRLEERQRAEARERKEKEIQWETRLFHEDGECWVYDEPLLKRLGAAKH

ORP9L [2] = target: T3, ORP9L (Homo sapiens, UniProt Q96SU4, H501A/H502A, form not given); experiment: as above; conditions: 100 pmol protein; pH 7.4, 25 °C, 20 min; labelled compound
T3 construct: gene OSBPL9; full-length long variant, C-terminal V5-His tag (stated for the HH/AA mutant)
T3 sequence (Q96SU4 2-736 H501A/H502A): T1 sequence (Q96SU4 2-736) with H500A, H501A

ORP9L [3] = target: T1, ORP9L; experiment: as above; conditions: pH 7.4, 25 °C, 20 min; 0.1 mM liposomes with 0.5 mol% PI-4P; labelled compound
Osh6 = target: T4, Osh6 (Saccharomyces cerevisiae, UniProt Q02201); experiment: [3H]PS extraction from liposomes, sedimentation; conditions: 100 pmol protein; pH 7.4, 25 °C, 20 min; labelled compound
T4 construct: hexahistidine-SUMO3-tagged, expressed in bacteria
T4 sequence (Q02201 1-448): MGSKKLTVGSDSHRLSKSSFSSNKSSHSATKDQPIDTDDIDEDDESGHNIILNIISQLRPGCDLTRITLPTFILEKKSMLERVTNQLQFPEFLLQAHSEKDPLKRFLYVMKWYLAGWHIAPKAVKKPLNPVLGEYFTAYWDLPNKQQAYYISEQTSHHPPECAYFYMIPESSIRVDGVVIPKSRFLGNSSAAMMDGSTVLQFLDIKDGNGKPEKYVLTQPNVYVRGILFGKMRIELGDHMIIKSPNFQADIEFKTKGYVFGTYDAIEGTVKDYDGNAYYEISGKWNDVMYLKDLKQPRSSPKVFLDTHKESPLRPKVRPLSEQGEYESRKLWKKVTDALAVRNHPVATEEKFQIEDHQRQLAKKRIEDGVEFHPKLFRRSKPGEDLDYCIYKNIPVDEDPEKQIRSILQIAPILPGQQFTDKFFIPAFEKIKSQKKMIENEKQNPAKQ

% inhibition of CTL extraction (ORP9L [1]): 50%
Compound: CC(C)CCC[C@@H](C)[C@H]1CC[C@H]2[C@@H]3CC=C4C[C@@H](O)CC[C@]4(C)[C@H]3CC[C@]12C [cholesterol]

% extraction (ORP9S): 14%
% reduction of extraction versus wild type (ORP9L [2]): > 75%
% maximal extraction (ORP9L [3]): 9%
Compound: PI-4P

% extraction (Osh6): ~ 2%
Compound: phosphatidylserine
